Data: PubChem BioAssay AID1963980 (Molecular Pharmacology Branch, DTP, NCI, 2024)

Tested on: 475296-252-R-J1-PDC spheroid viability
Assay: Anticancer human tumor 475296-252-R-J1-PDC patient-derived rectal carcinoma cell line growth inhibition [PI3K]
Conditions: spheroids with HUVEC and MSC; for IC50: curve of first compound; for viability, T/C: stronger effect = lower value
Method in brief: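 High-throughput combination screen: PI3K inhibitors crossed with targeted small molecules on complex spheroids of tumor cells, HUVEC and MSCs at 37 degrees C, 5% CO2. Top concentration was at or near clinical Cmax (otherwise 10 microM), with half-log decrements.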

[1] = second compound 0.00316 µM, first compound 0.0316 µM
[2] = second compound 0.00316 µM, first compound 0.1 µM
[3] = second compound 0.00316 µM, first compound 0.316 µM
[4] = second compound 0.00316 µM, first compound 1 µM
[5] = second compound 0.00316 µM, first compound 3.16 µM
[6] = second compound 0.00316 µM, first compound 10 µM
[7] = second compound 0.01 µM, first compound 0.0316 µM
[8] = second compound 0.01 µM, first compound 0.1 µM
[9] = second compound 0.01 µM, first compound 0.316 µM
[10] = second compound 0.01 µM, first compound 1 µM
[11] = second compound 0.01 µM, first compound 3.16 µM
[12] = second compound 0.01 µM, first compound 10 µM
[13] = second compound 0.0316 µM, first compound 0.0316 µM
[14] = second compound 0.0316 µM, first compound 0.1 µM
[15] = second compound 0.0316 µM, first compound 0.316 µM
[16] = second compound 0.0316 µM, first compound 1 µM
[17] = second compound 0.0316 µM, first compound 3.16 µM
[18] = second compound 0.0316 µM, first compound 10 µM
[19] = second compound 0.1 µM, first compound 0.0316 µM
[20] = second compound 0.1 µM, first compound 0.1 µM
[21] = second compound 0.1 µM, first compound 0.316 µM
[22] = second compound 0.1 µM, first compound 1 µM
[23] = second compound 0.1 µM, first compound 3.16 µM
[24] = second compound 0.1 µM, first compound 10 µM
[25] = second compound 0.316 µM, first compound 0.0316 µM
[26] = second compound 0.316 µM, first compound 0.1 µM
[27] = second compound 0.316 µM, first compound 0.316 µM
[28] = second compound 0.316 µM, first compound 1 µM
[29] = second compound 0.316 µM, first compound 3.16 µM
[30] = second compound 0.316 µM, first compound 10 µM
[31] = second compound 1 µM, first compound 0.0316 µM
[32] = second compound 1 µM, first compound 0.1 µM
[33] = second compound 1 µM, first compound 0.316 µM
[34] = second compound 1 µM, first compound 1 µM
[35] = second compound 1 µM, first compound 3.16 µM
[36] = second compound 1 µM, first compound 10 µM
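Also: spheroids exposed to agents for seven days before readout.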

In the case of `CC1(C)CCC(CN2CCN(c3ccc(C(=O)NS(=O)(=O)c4ccc(NCC5CCOCC5)c([N+](=O)[O-])c4)c(Oc4cnc5[nH]ccc5c4)c3)CC2)=C(c2ccc(Cl)cc2)C1` + COc1c(OCCCN2CCOCC2)ccc2c3n(c(=NC(=O)c4cnc(N)nc4)nc12)CCN3, the IC50 (second compound 0.00316 µM) is reported as greater than 10 µM, the IC50 (second compound 0.01 µM) is reported as greater than 10 µM and the IC50 (second compound 0.0316 µM) is reported as greater than 10 µM. For the same molecule, the IC50 (second compound 0.1 µM) was greater than 10 µM, the IC50 (second compound 0.316 µM) was greater than 10 µM and the IC50 (second compound 1 µM) was 5.62 µM. For the same molecule, the viability, T/C [1] was 107%, the viability, T/C [2] was 85.6% and the viability, T/C [3] was 111%. For the same molecule, the viability, T/C [4] was 86.3%, the viability, T/C [5] was 105% and the viability, T/C [6] was 68.7%. For the same molecule, the viability, T/C [7] was 96.2%, the viability, T/C [8] was 97.9% and the viability, T/C [9] was 87.5%. For the same molecule, the viability, T/C [10] was 104%, the viability, T/C [11] was 86% and the viability, T/C [12] was 67.3%. For the same molecule, the viability, T/C [13] was 98.6%, the viability, T/C [14] was 85.8% and the viability, T/C [15] was 82.5%. It also gave a viability, T/C [16] of 93.5%, a viability, T/C [17] of 79.8% and a viability, T/C [18] of 64%. The viability, T/C [19] was 91.8%, the viability, T/C [20] was 80.7% and the viability, T/C [21] was 78%. It also gave a viability, T/C [22] of 85%, a viability, T/C [23] of 70.6% and a viability, T/C [24] of 66.7%. For the same molecule, the viability, T/C [25] was 67%, the viability, T/C [26] was 72.3% and the viability, T/C [27] was 63.7%. For the same molecule, the viability, T/C [28] was 62%, the viability, T/C [29] was 66.8% and the viability, T/C [30] was 59.4%. The viability, T/C [31] was 63.2%, the viability, T/C [32] was 61.9% and the viability, T/C [33] was 58.8%. For the same molecule, the viability, T/C [34] was 57.3%, the viability, T/C [35] was 62.4% and the viability, T/C [36] was 39.5%.

`C[C@@H](NC(=O)c1ncnc(N)c1Cl)c1ncc(C(=O)Nc2cc(C(F)(F)F)c(Cl)cn2)s1` + COc1c(OCCCN2CCOCC2)ccc2c3n(c(=NC(=O)c4cnc(N)nc4)nc12)CCN3 showed an IC50 (second compound 0.00316 µM) greater than 10 µM, an IC50 (second compound 0.01 µM) greater than 10 µM and an IC50 (second compound 0.0316 µM) greater than 10 µM. It also gave an IC50 (second compound 0.1 µM) of 7.87 µM, an IC50 (second compound 0.316 µM) of 9.5 µM and an IC50 (second compound 1 µM) of 3.76 µM. The viability, T/C [1] was 82.4%, the viability, T/C [2] was 88% and the viability, T/C [3] was 94.8%. It also gave a viability, T/C [4] of 101%, a viability, T/C [5] of 94.5% and a viability, T/C [6] of 79.3%. It also gave a viability, T/C [7] of 88%, a viability, T/C [8] of 86.8% and a viability, T/C [9] of 90.4%. For the same molecule, the viability, T/C [10] was 85.9%, the viability, T/C [11] was 101% and the viability, T/C [12] was 67.3%. It also gave a viability, T/C [13] of 78.6%, a viability, T/C [14] of 83.7% and a viability, T/C [15] of 79.7%. The viability, T/C [16] was 78.1%, the viability, T/C [17] was 80.8% and the viability, T/C [18] was 61%. The viability, T/C [19] was 74.1%, the viability, T/C [20] was 74.1% and the viability, T/C [21] was 83.5%. The viability, T/C [22] was 69.3%, the viability, T/C [23] was 80.1% and the viability, T/C [24] was 43.3%. The viability, T/C [25] was 62.5%, the viability, T/C [26] was 61.8% and the viability, T/C [27] was 53.9%. The viability, T/C [28] was 67.4%, the viability, T/C [29] was 69% and the viability, T/C [30] was 32.6%. For the same molecule, the viability, T/C [31] was 61.9%, the viability, T/C [32] was 58.6% and the viability, T/C [33] was 74.4%. The viability, T/C [34] was 58.9%, the viability, T/C [35] was 54.9% and the viability, T/C [36] was 23.8%.

With `Cn1ncnc1[C@H]1c2n[nH]c(=O)c3cc(F)cc(c23)N[C@@H]1c1ccc(F)cc1` + COc1c(OCCCN2CCOCC2)ccc2c3n(c(=NC(=O)c4cnc(N)nc4)nc12)CCN3 the IC50 (second compound 0.00316 µM) was greater than 0.1 µM, the IC50 (second compound 0.01 µM) was greater than 0.1 µM and the IC50 (second compound 0.0316 µM) was greater than 0.1 µM. The IC50 (second compound 0.1 µM) was greater than 0.1 µM, the IC50 (second compound 0.316 µM) was greater than 0.1 µM and the IC50 (second compound 1 µM) was greater than 0.1 µM. It also gave a viability, T/C (second compound 0.00316 µM, first compound 0.000316 µM) of 91.6%, a viability, T/C (second compound 0.00316 µM, first compound 0.001 µM) of 99% and a viability, T/C (second compound 0.00316 µM, first compound 0.00316 µM) of 115%. For the same molecule, the viability, T/C (second compound 0.00316 µM, first compound 0.01 µM) was 99.5%, the viability, T/C [1] was 116% and the viability, T/C [2] was 109%. For the same molecule, the viability, T/C (second compound 0.01 µM, first compound 0.000316 µM) was 95.5%, the viability, T/C (second compound 0.01 µM, first compound 0.001 µM) was 104% and the viability, T/C (second compound 0.01 µM, first compound 0.00316 µM) was 108%. It also gave a viability, T/C (second compound 0.01 µM, first compound 0.01 µM) of 99.4%, a viability, T/C [7] of 116% and a viability, T/C [8] of 94.7%. For the same molecule, the viability, T/C (second compound 0.0316 µM, first compound 0.000316 µM) was 93.1%, the viability, T/C (second compound 0.0316 µM, first compound 0.001 µM) was 98% and the viability, T/C (second compound 0.0316 µM, first compound 0.00316 µM) was 106%. The viability, T/C (second compound 0.0316 µM, first compound 0.01 µM) was 99.2%, the viability, T/C [13] was 94.2% and the viability, T/C [14] was 93.3%. For the same molecule, the viability, T/C (second compound 0.1 µM, first compound 0.000316 µM) was 85.3%, the viability, T/C (second compound 0.1 µM, first compound 0.001 µM) was 99.1% and the viability, T/C (second compound 0.1 µM, first compound 0.00316 µM) was 94.8%. For the same molecule, the viability, T/C (second compound 0.1 µM, first compound 0.01 µM) was 75.1%, the viability, T/C [19] was 85% and the viability, T/C [20] was 75.8%. For the same molecule, the viability, T/C (second compound 0.316 µM, first compound 0.000316 µM) was 82.4%, the viability, T/C (second compound 0.316 µM, first compound 0.001 µM) was 73.1% and the viability, T/C (second compound 0.316 µM, first compound 0.00316 µM) was 71.7%. For the same molecule, the viability, T/C (second compound 0.316 µM, first compound 0.01 µM) was 86.1%, the viability, T/C [25] was 67.8% and the viability, T/C [26] was 75.7%. The viability, T/C (second compound 1 µM, first compound 0.000316 µM) was 65.4%, the viability, T/C (second compound 1 µM, first compound 0.001 µM) was 65% and the viability, T/C (second compound 1 µM, first compound 0.00316 µM) was 63.5%. For the same molecule, the viability, T/C (second compound 1 µM, first compound 0.01 µM) was 70.8%, the viability, T/C [31] was 70.8% and the viability, T/C [32] was 55.4%.
